Data taken from ChEMBL document CHEMBL3813663, “Aryl morpholino triazenes inhibit cytochrome P450 1A1 and 1B1” (Bioorg Med Chem Lett, 2016).

Assays:
[1] = target: CYP1A1 (Homo sapiens, UniProt P04798); assay: in vitro
Description: Inhibition of recombinant human CYP1A1 expressed in Escherichia coli DH5aplha cells assessed as O-deethylation of ethoxyresorufin in presence of NADPH at 100 uM measured after 2 mins by spectrofluorometric method

[2] = target: T1, CYP1B1 (Homo sapiens, UniProt Q16678); assay: in vitro
T1 sequence (Q16678 whole entry): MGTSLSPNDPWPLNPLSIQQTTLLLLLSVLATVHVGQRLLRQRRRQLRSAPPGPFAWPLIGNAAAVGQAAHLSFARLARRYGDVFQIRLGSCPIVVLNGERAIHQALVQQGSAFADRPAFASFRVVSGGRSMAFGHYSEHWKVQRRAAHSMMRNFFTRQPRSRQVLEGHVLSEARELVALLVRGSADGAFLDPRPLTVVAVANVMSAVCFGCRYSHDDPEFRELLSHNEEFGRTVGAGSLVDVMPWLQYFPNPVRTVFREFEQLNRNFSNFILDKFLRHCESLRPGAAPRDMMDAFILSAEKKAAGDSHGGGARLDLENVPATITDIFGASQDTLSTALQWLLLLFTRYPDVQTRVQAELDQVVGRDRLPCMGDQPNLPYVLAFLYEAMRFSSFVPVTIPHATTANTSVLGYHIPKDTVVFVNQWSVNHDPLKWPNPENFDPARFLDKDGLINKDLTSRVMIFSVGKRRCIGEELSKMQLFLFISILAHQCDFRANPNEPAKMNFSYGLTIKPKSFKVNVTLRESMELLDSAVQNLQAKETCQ
Description: Inhibition of recombinant human CYP1B1 expressed in Escherichia coli DH5aplha cells assessed as O-deethylation of ethoxyresorufin in presence of NADPH at 100 uM measured after 2 mins by spectrofluorometric method

[3] = target: Cytochrome P450 1A1 (Homo sapiens, UniProt P04798)
Description: Inhibition of recombinant human CYP1A1 expressed in Escherichia coli DH5aplha cells assessed as O-deethylation of ethoxyresorufin in presence of NADPH measured after 2 mins by spectrofluorometric method

[4] = target: T2, Cytochrome P450 1B1 (Homo sapiens, UniProt Q16678)
T2 sequence (Q16678 whole entry): T1 sequence (Q16678 whole entry)
Description: Inhibition of recombinant human CYP1B1 expressed in Escherichia coli DH5aplha cells assessed as O-deethylation of ethoxyresorufin in presence of NADPH measured after 2 mins by spectrofluorometric method

[5] = probe ethoxyresorufin (O-deethylation)

Sequence of CYP1A1 (P04798 whole entry): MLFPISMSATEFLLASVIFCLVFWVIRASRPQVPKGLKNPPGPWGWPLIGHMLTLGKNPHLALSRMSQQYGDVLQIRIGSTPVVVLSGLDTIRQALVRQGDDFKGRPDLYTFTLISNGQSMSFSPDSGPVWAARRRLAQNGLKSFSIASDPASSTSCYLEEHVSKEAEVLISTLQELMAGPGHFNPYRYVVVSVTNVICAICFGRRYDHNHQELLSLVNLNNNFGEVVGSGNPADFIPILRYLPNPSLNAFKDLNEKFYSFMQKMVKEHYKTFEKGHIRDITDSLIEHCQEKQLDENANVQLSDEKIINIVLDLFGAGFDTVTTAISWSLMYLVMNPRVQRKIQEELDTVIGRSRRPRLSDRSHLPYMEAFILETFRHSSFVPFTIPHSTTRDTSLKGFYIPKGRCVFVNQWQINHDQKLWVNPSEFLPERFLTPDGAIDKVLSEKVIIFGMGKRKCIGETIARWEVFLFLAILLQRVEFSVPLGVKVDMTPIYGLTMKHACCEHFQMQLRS
Sequence of Cytochrome P450 1A1 (P04798 whole entry): as above

Structure (SMILES)	activity at 2 min, 100 µM [1, 5]	activity at 2 min, 100 µM [2, 5]	IC50 [3]	IC50 [4]	activity at 2 min, 100 µM [2]	activity at 2 min, 100 µM [1]
COc1cc(N)cc(OC)c1OC	95%	100%				
Nc1ccccc1 [ANILINE]	100%	100%				
Oc1ccc(/C=C/c2cc(O)cc(O)c2)cc1 [RESVERATROL]	11%		34 µM	55 µM	56%	
Nc1ccc(Br)cc1 [4-BROMOANILINE]	100%	94%				
C1COCCN1 [MORPHOLINE]					100%	91%
COc1cc(/N=N/N2CCOCC2)cc(OC)c1OC	8%	14%	10 µM	18 µM		
Nc1ccc([N+](=O)[O-])cc1 [4-NITROANILINE]	100%	92%				

Now from value to compound, other results behind:

activity at 2 min, 100 µM [1, 5]	activity at 2 min, 100 µM [2, 5]	IC50 [3]	IC50 [4]	activity at 2 min, 100 µM [2]	Structure (SMILES)	activity at 2 min, 100 µM [1]
67%	81%	167 µM	400 µM		O=C(O)c1ccc(/N=N/N2CCOCC2)cc1	
100%	75%		> 120 µM		Nc1ccc(C(=O)O)cc1 [AMINOBENZOIC ACID]	
70%	100%	82 µM			CC(=O)c1ccc(/N=N/N2CCOCC2)cc1	
56%	74%	120 µM	163 µM		c1ccc(/N=N/N2CCOCC2)cc1	
79%		115 µM	2 µM	16%	O=[N+]([O-])c1ccc(/N=N/N2CCOCC2)cc1	
	59%	63 µM	7 µM		Brc1ccc(/N=N/N2CCOCC2)cc1	53%
